Values after ≈ are worked out from the molar mass of the structure shown. Numbered stars: 1 amine (or outer) side, 2 acyl side, 3 side chain; on linkers, the order of the positions; unused ones are H or OH. Square brackets hold non-standard residues; d marks the D form. Ends that are not written are not given here. Peptide text beside a SMILES is read from it. Suc = O=C(CCC(=O)[*:2])[*:1]; Sar = CNCC(=O)O
Tests used:
[1] = test system: purified rat peritoneal mast cells; type: cell-based; conditions: for maximal inhibition of compound 48/80 induced histamine secretion: 600 μg/ml peptide, compound 48/80 concentration not given; for Inhibitor (extent of inhibition of histamine secretion from mast cells): Table 9
Procedure: 37° C. […] Each data point represents the average of duplicate measurements. The spontaneously released histamine was subtracted.
First, the effect of compound 48/80 on exocytosis from intact mast cells was determined. […] Histamine release was determined and is presented as the net secretion that is % of the total cellular histamine following subtraction of the spontaneously released histamine. Half-maximal release was obtained at 0.1 μg/ml while maximal release was obtained at 1-10 μg/ml. Accordingly, in order to analyze the potential of each peptide to block histamine secretion, histamine secretion was induced with 5 μg/ml compound 48/80, a concentration that induces a maximal histamine release, while the cells were incubated in the presence of increasing concentrations of each peptide.
In order to investigate the ability of these peptides to block allergen-induced exocytosis, the peptides were examined for their ability to block compound 48/80 induced histamine secretion from intact mast cells in vitro. Mast cells were incubated with different concentrations of each peptide, followed by induction of histamine secretion by compound 48/80.

[2] = test system: purified rat peritoneal mast cells; assay: Histamine secretion from intact mast cells incubated with peptide alone (secretagogue side effect); conditions: for Secretagogue (histamine secretion following incubation of mast cell with different concentrations of each peptide): no allergen; for histamine secretion from mast cells on incubation with increasing concentrations of peptide alone: no additional allergen
[3] = test system: abdominal skin of C.R rats; assay: Rat skin test: intradermal injection of peptide, then intradermal compound 48/80 or vehicle, wheal area; type: in vivo; conditions: for Mean Wheal Area ± STD, Compound 48/80: 0.5 hour before allergic induction; for Mean Wheal Area ± STD, Vehicle: 0.5 hour before, vehicle instead of compound 48/80
Procedure: The hair of the abdominal area of C.R rats was carefully removed with an electric clipper and a depilatory cream. In each animal the abdominal area was divided to six equal zones that were marked by pen. Each zone was either subjected to peptide treatment or served as a control. In the first set of experiments, the peptide was topically applied as follows: 36 μl of peptide solution at the indicated concentration (dissolved in 72% DMSO in saline) was applied on desired abdominal area. In the second set of experiments, the peptide was injected intradermally as follows: 20 μl of peptide solution at different concentrations (dissolved in 10% DMSO in saline) was injected intradermally to an indicated abdominal area using a 27-gauge sterile needle.
Skin tests were performed 0.5, 1 or 2 hours following application of the peptide. Skin tests were performed by injecting intradermally 20 μl of the allergen (0.1 mg/ml compound 48/80 dissolved in saline) or saline alone, into the center of each marked area on the abdominal skin using a 27-gauge sterile needle. The allergic response was monitored by outlining with a marker the wheals which developed in response to allergen or saline treatment.
To quantitate the skin test results, the marker signs were transferred onto paper with scotch tape. The areas of the wheals were outlined and calculated by a computerized planimeter (Hewlett-Packard), as previously described (Sussman et al., 1982).
Tables 10-16 presents the mean areas of the wheals, which developed in response to intradermal injection of each of the tested peptides, followed by either compound 48/80 or DDW injection applied after 0.5 or 1 hour. Two doses were tested for each peptide-20 and 200 μg (injection of 20 μl from a stock solution of 1 mg/ml or 10 mg/m respectively).
Skin tests on rats using compound 48/80 as the allergen assessed the ability of the peptides of the present invention to block allergic cutaneous reactions. The abdominal skin of the rats was subjected to peptide (indicated concentrations are listed in Tables 17A-17B below) or vehicle treatment (intradermal injection); the allergic response was induced by intradermal injection of compound 48/80 at various times; and the allergic response was quantified by calculating the area of the resultant allergic wheals.

[4] = incubation with different concentrations of each peptide, then induction of the allergic reaction

In the case of `CC(C)C[C@H](NC(=O)CNC(=O)[C@H](CS)NC(=O)[C@H](CC(=O)O)NC(=O)[C@H](CCCCN)NC(=O)[C@H](CC(C)C)NC(=O)[C@H](CC(N)=O)NC(=O)[C@H](CCC(=O)O)NC(=O)[C@H](CCCCN)NC(=O)[C@@H]1CCCN1C(=O)[C@H](C)NC(=O)[C@H](CC(C)C)NC(=O)[C@H](CC(C)C)NC(=O)[C@H](C)NC(=O)[C@H](CC(C)C)NC(=O)[C@H](CC(C)C)NC(=O)[C@@H](NC(=O)[C@H](C)NC(=O)[C@@H]1CCCN1C(=O)[C@H](CC(C)C)NC(=O)[C@H](CC(C)C)NC(=O)[C@H](C)NC(=O)[C@@H](NC(=O)[C@H](C)NC(=O)[C@H](C)NC(=O)CCC(=O)O)C(C)C)C(C)C)C(=O)N[C@@H](Cc1ccccc1)C(=O)O` [Peptide 5-Suc] (Suc-AAVALLPAVLLALLAPKENLKDCGLF-OH; C-terminus assumed), the “Inhibitor (degree of inhibition of histamine secretion from mast cells)” value ([1]; Table 1, incubation with different concentrations of each peptide, then induction of the allergic reaction) is reported as “− (− No inhibition)”, the “Secretagogue (histamine secretion following incubation of mast cell with different concentrations of each peptide)” value ([2]; Table 1, peptide alone) is reported as “+” and the “histamine secretion from mast cells on incubation with increasing concentrations of peptide alone” value [2] is reported as “induced histamine secretion from mast cells in a concentration dependent manner”.

With `CC(C)C[C@H](NC(=O)CNC(=O)[C@H](CS)NC(=O)[C@H](CCC(=O)O)NC(=O)[C@H](CCCCN)NC(=O)[C@H](CC(C)C)NC(=O)[C@H](CC(N)=O)NC(=O)[C@H](CC(N)=O)NC(=O)[C@H](CCCCN)NC(=O)CN(C)C(=O)[C@H](C)NC(=O)[C@H](CC(C)C)NC(=O)[C@H](CC(C)C)NC(=O)[C@H](C)NC(=O)[C@H](CC(C)C)NC(=O)[C@H](CC(C)C)NC(=O)[C@@H](NC(=O)[C@H](C)NC(=O)[C@@H]1CCCN1C(=O)[C@H](CC(C)C)NC(=O)[C@H](CC(C)C)NC(=O)[C@H](C)NC(=O)[C@@H](NC(=O)[C@H](C)NC(=O)[C@H](C)NC(=O)CCC(=O)O)C(C)C)C(C)C)C(=O)N[C@@H](Cc1ccc(O)cc1)C(=O)O` [WALL008] (Suc-AAVALLPAVLLALLA[Sar]KNNLKECGLY-OH; C-terminus assumed) the “IC50, compound 48/80 induced histamine secretion” value [1] was 220 µg/mL (≈ 79.9 µM), the “maximal inhibition of compound 48/80 induced histamine secretion” value [1] was 98.7% and the “Inhibitor (extent of inhibition of histamine secretion from mast cells)” value [1, 4] was “+++ (+++ Potent inhibitor (≧80% inhibition))”. The “block of compound 48/80 induced allergic reaction in vivo, rat skin” value ([3]; intradermal peptide) was “effectively block the allergic response in vivo”, the “Mean Wheal Area ± STD, Compound 48/80” value ([3]; intradermal peptide 1 mg/ml) was 104.1 ± 18.5 (n = 4) mm^2 and the “Mean Wheal Area ± STD, Vehicle” value ([3]; intradermal peptide 1 mg/ml) was 79.9 ± 22.3 (n = 4) mm^2. The “Mean Wheal Area ± STD, Compound 48/80” value ([3]; intradermal peptide 10 mg/ml) was 73.7 ± 12.2 (n = 4) mm^2, the “Mean Wheal Area ± STD, Vehicle” value ([3]; intradermal peptide 10 mg/ml) was 72.8 ± 13.6 (n = 4) mm^2 and the “reduction of compound 48/80 induced allergic reaction” value ([3]; intradermal peptide 0.5 hour before allergic induction) was “significant inhibition”. The “Secretagogue (histamine secretion following incubation of mast cell with different concentrations of each peptide)” value ([2]; Table 9, peptide alone) was “−”, the “histamine secretion from mast cells on incubation with increasing concentrations of peptide alone” value [2] was “did not result in histamine secretion” and the “basal level of histamine secretion compared to control cells” value ([2]; peptide alone, increasing concentrations) was “inhibition of the basal level of histamine secretion”.

For `CC(C)C[C@H](NC(=O)CNC(=O)[C@H](CS)NC(=O)[C@H](CCC(=O)O)NC(=O)[C@H](CCCCN)NC(=O)[C@H](CC(C)C)NC(=O)[C@H](CC(N)=O)NC(=O)[C@H](CO)NC(=O)[C@H](CCCCN)NC(=O)[C@@H]1CCCN1C(=O)[C@H](C)NC(=O)[C@H](CC(C)C)NC(=O)[C@H](CC(C)C)NC(=O)[C@H](C)NC(=O)[C@H](CC(C)C)NC(=O)[C@H](CC(C)C)NC(=O)[C@@H](NC(=O)[C@H](C)NC(=O)[C@@H]1CCCN1C(=O)[C@H](CC(C)C)NC(=O)[C@H](CC(C)C)NC(=O)[C@H](C)NC(=O)[C@@H](NC(=O)[C@H](C)NC(=O)[C@H](C)NC(=O)CCC(=O)O)C(C)C)C(C)C)C(=O)N[C@@H](Cc1ccc(O)cc1)C(=O)O` [WALL011] (Suc-AAVALLPAVLLALLAPKSNLKECGLY-OH; C-terminus assumed), the “IC50, compound 48/80 induced histamine secretion” value [1] was 160 µg/mL (≈ 58.1 µM), the “maximal inhibition of compound 48/80 induced histamine secretion” value [1] was 87% and the “Inhibitor (extent of inhibition of histamine secretion from mast cells)” value [1, 4] was “+++ (+++ Potent inhibitor (≧80% inhibition))”. For the same compound, the “Secretagogue (histamine secretion following incubation of mast cell with different concentrations of each peptide)” value ([2]; Table 9, peptide alone) was “−”, the “histamine secretion from mast cells on incubation with increasing concentrations of peptide alone” value [2] was “did not result in histamine secretion” and the “basal level of histamine secretion compared to control cells” value ([2]; peptide alone at 400-600 μg/ml) was “minor inhibition of the basal level of histamine secretion”.

For AAVALLPAVLLALLAAKNNLKECGLY [WALL004], the “histamine secretion from mast cells, peptide alone” value ([2]; especially at a peptide concentration exceeding 200 μg/ml) was “moderate histamine secretion”.

With AAVALLPAVLLALLAPKENLKDCGLF [Peptide 5] the “Secretagogue (histamine secretion following incubation of mast cell with different concentrations of each peptide)” value ([2]; Table 1, peptide alone) was “−”.

With AAVALLPAVLLALLAPKNNLKDCGLF [Peptide 5m] the “Secretagogue (histamine secretion following incubation of mast cell with different concentrations of each peptide)” value ([2]; Table 1, peptide alone) was “+” and the “histamine secretion from mast cells on incubation with increasing concentrations of peptide alone” value [2] was “induced histamine secretion from mast cells in a concentration dependent manner”.

In the case of AAVALLPAVLLALLAPKNNLKESGLY [Peptide 25], the “Secretagogue (histamine secretion following incubation of mast cell with different concentrations of each peptide)” value ([2]; Table 1, peptide alone) is reported as “+” and the “histamine secretion from mast cells on incubation with increasing concentrations of peptide alone” value [2] is reported as “induced histamine secretion from mast cells in a concentration dependent manner”.

In the case of AAVALLPAVLLALLAPKQNLKECGLY [WALL006], the “IC50, compound 48/80 induced histamine secretion” value [1] is reported as 560 µg/mL, the “Secretagogue (histamine secretion following incubation of mast cell with different concentrations of each peptide)” value ([2]; Table 9, peptide alone) is reported as “−” and the “histamine secretion from mast cells on incubation with increasing concentrations of peptide alone” value [2] is reported as “did not result in histamine secretion”.

For AAVALLPAVLLALLAPLKDCGLF [Peptide 21], the “histamine secretion from mast cells, peptide alone” value ([2]; at higher doses of 400 and 600 μg/ml) was “induced some histamine secretion”.

AAVALLPAVLLALLAPLKECGLY [Peptide 20] was tested, and the “Secretagogue (histamine secretion following incubation of mast cell with different concentrations of each peptide)” value ([2]; Table 1, peptide alone) was “−” and the “histamine secretion from mast cells on incubation with increasing concentrations of peptide alone” value [2] was “did not induce histamine secretion”.

AAVALLPAVLLALLAPYLGCEKLNNK [WALL023] was tested, and the “histamine secretion from mast cells, peptide alone” value ([2]; 600 μg/ml peptide) was “did not result in histamine secretion” and the “Secretagogue (histamine secretion following incubation of mast cell with different concentrations of each peptide)” value ([2]; Table 9, peptide alone) was “−”.

“KAAVALLPAVLLALLAPKNNLKDCGLF [Peptide 12]” was tested, and the “Secretagogue (histamine secretion following incubation of mast cell with different concentrations of each peptide)” value ([2]; Table 1, peptide alone) was “+” and the “histamine secretion from mast cells on incubation with increasing concentrations of peptide alone” value [2] was “induced histamine secretion from mast cells in a concentration dependent manner”.

“KAAVALLPAVLLALLAPKNNLKECGLY [Peptide 13]” was tested, and the “Secretagogue (histamine secretion following incubation of mast cell with different concentrations of each peptide)” value ([2]; Table 1, peptide alone) was “+” and the “histamine secretion from mast cells on incubation with increasing concentrations of peptide alone” value [2] was “induced histamine secretion from mast cells in a concentration dependent manner”.

With RQPKIWFPNRRKPWKKKENLKDCGLF [Peptide 6] the “histamine secretion from mast cells on incubation with increasing concentrations of peptide alone” value [2] was “induced histamine secretion from mast cells in a concentration dependent manner”.

With RQPKIWFPNRRKPWKKKNNLKECGLY [Peptide 3] the “histamine secretion from mast cells on incubation with increasing concentrations of peptide alone” value [2] was “induced histamine secretion from mast cells in a concentration dependent manner”.

With VTVLALGALAGVGVGKENLKDCGLF [Peptide 4] the “stimulatory effect on histamine secretion” value ([2]; peptide alone, concentration range of up to 400 p.g/ml (FIG. 1A)) was “hardly any stimulatory effect”.
